Results reported in publication PMC7662397, “p-Cymene Complexes of Ruthenium(II) as Antitumor Agents” (Molecules, 2020).
Like-named read-outs stand apart in the source and are kept apart here.

Columns and labels:
HeLa cells [1] = assay: MTT cytotoxicity assay, HeLa cells, 48 h; assay type: cell-based, human; settings: read-out: IC50 (μM) HeLa
Description: (§1) Human cervical cancer cells (HeLa), human breast cancer cells (MCF-7) and green monkey kidney epithelial cells (BGM) were acquired from the American Type Culture Collection (ATCC, USA). The reason to choose human cervical cancer cells (HeLa) and human breast cancer cells (MCF-7) was to use a cell culture model that closely represented the human in vivo situation. The green monkey kidney epithelial cells (BGM) were chosen to compare cancer cells with healthy cells. Cell lines were maintained in Dulbecco’s Modified Eagle Medium (DMEM) with a low glucose content (1 g/L) supplemented with 10% (v/v) fetal bovine serum (FBS), 1 mM glutamax, 1% antibiotics (penicillin–streptomycin) and 1 mM pyruvate. In all cases, the cells were maintained at 37 °C in 5% CO2 atmosphere of 95% humidity. Cells were sub-cultured and the medium was changed once a week. In all cases, 0.25% trypsin, 0.25 mM ethylenediaminetetraacetic acid (EDTA) was used.
(§2) A total of 5 × 10^3 cells/well (200 µL of the culture medium described above) were seeded into a 96-well plate and incubated at 37 °C in a 5% CO2 and 95% humidity atmosphere for 24 h. […] Finally, a 200 µL aliquot of each of these last sixteen solutions was added to the wells. Cells were incubated at 37 °C for 48 h. The medium was then removed from the wells and 200 μL of MTT (3-(4,5-dimethylthiazol-2-yl)-2,5-diphenyltetrazolium bromide, 1 mg/mL final concentration) was added. After 4 h incubation in identical conditions, MTT was removed and 100 µL of dimethyl sulfoxide (DMSO) added. The absorbance at 560 nm was measured and recorded in a Fluostar Omega spectrophotometer.
(§3) Absorbances at each compound concentration were translated into inhibition percentages, I%, according to Equation (1):(1) I% = [1− AT/AC]×100 where AT and AC are the absorbance of treated and control cells, respectively.
(§4) The fitting was performed using GraphPad Prism v.8 software. All compounds were tested in three independent sets with triplicate points. The in vitro studies were performed in SACE (Support Service for Experimental Sciences, University of Murcia, Murcia, Spain) with biosecurity Level 2.

BGM cells [2] = assay: MTT cytotoxicity assay, BGM cells, 48 h; assay type: cell-based, green monkey; settings: read-out: IC50 (μM) BGM
Description: as §1, §2, §3, §4

MCF-7 cells [3] = assay: MTT cytotoxicity assay, MCF-7 cells, 48 h; assay type: cell-based, human; settings: read-out: IC50 (μM) MCF-7
Description: as §1, §2, §3, §4

HeLa cells [4] = tested on: HeLa cells; set-up: method as in PMID 29880783; settings: cisplatin value from the literature; cited from earlier work
BGM cells [5] = settings: cisplatin value from the literature; cited from earlier work
MCF-7 cells [6] = settings: cisplatin value from the literature; cited from earlier work
[7] = human cervical cancer cells, 48 h exposure, MTT
[8] = healthy green monkey kidney epithelial cells, 48 h exposure, MTT
[9] = human breast cancer cells, 48 h exposure, MTT
[10] = Chlorocebus sabaeus, BGM, healthy green monkey kidney epithelial cells, 48 h exposure, MTT
[11] = MCF7, human breast cancer cells, 48 h exposure, MTT

**Q.** For `N#Cc1ccncc1` [4-cyanopyridine], which IC50 (HeLa cells [1]; Homo sapiens, 48 h) is on record?
**A.** > 250 µM

**Q.** And the IC50 (BGM cells [2]; Chlorocebus sabaeus, BGM, 48 h)?
**A.** > 250 µM

**Q.** What about the IC50 (MCF-7 cells [3]; Homo sapiens, MCF7, 48 h) of the same compound?
**A.** > 250 µM

**Q.** With `Cc1ccc(C(C)C)cc1.Nc1ccc(O)cc1.[Cl][Ru][Cl]` [Complex III] as the compound, how does the IC50 (HeLa cells [1]; [7]) read?
**A.** 171 ± 2.1 µM

**Q.** What about the IC50 (BGM cells [2]; [8]) of the same compound?
**A.** 59.6 ± 1.9 µM

**Q.** What about the IC50 (MCF-7 cells [3]; [9]) of the same compound?
**A.** 75.8 ± 2.3 µM

**Q.** Which IC50 (HeLa cells [1]; [7]) does the source give for `Cc1ccc(C(C)C)cc1.Nc1ccccc1O.[Cl][Ru][Cl]` [Complex II] here?
**A.** 82.9 ± 0.67 µM

**Q.** And the IC50 (BGM cells [2]; [8])?
**A.** > 250 µM

**Q.** And the IC50 (MCF-7 cells [3]; [9])?
**A.** 28.7 ± 1.8 µM

**Q.** Which IC50 (HeLa cells [1]; [7]) does the source give for `Cc1ccc(C(C)C)cc1.[Cl][Ru][Cl].c1ccnnc1` [Complex IV] here?
**A.** > 250 µM

**Q.** What about the IC50 (BGM cells [2]; [8]) of the same compound?
**A.** > 250 µM

**Q.** And the IC50 (MCF-7 cells [3]; [9])?
**A.** > 250 µM

**Q.** Which IC50 (HeLa cells [1]; [7]) does the source give for `Cc1ccc(C(C)C)cc1.N#Cc1ccncc1.[Cl][Ru][Cl]` [Complex I] here?
**A.** > 250 µM

**Q.** What about the IC50 (BGM cells [2]; [8]) of the same compound?
**A.** > 250 µM

**Q.** And the IC50 (MCF-7 cells [3]; [9])?
**A.** > 250 µM

**Q.** What does the source list for `Cc1ccc(C(C)C)cc1.F[P-](F)(F)(F)(F)F.Nc1ccccc1O.Nc1ccccc1O.[Cl][Ru+]` [Complex VI]?
**A.** IC50 (HeLa cells [1]; [7]): 57.6 ± 4 µM; IC50 (BGM cells [2]; [8]): 95 ± 1.7 µM; IC50 (MCF-7 cells [3]; [9]): 24.9 ± 4.3 µM

**Q.** Which IC50 (HeLa cells [1]; [7]) does the source give for `Nc1ccccc1O` [L = 2-aminophenol, 2-aminophenol] here?
**A.** > 250 µM

**Q.** What about the IC50 (BGM cells [2]; [10]) of the same compound?
**A.** > 250 µM

**Q.** And the IC50 (MCF-7 cells [3]; [11])?
**A.** 131.3 ± 0.15 µM

**Q.** What does the source list for `Nc1ccc(O)cc1` [L = 4-aminophenol, 4-aminophenol]?
**A.** IC50 (HeLa cells [1]; [7]): > 250 µM; IC50 (BGM cells [2]; [10]): > 250 µM; IC50 (MCF-7 cells [3]; [11]): > 250 µM

**Q.** What does the source list for `c1ccnnc1` [Pyridazine]?
**A.** IC50 (HeLa cells [1]; [7]): > 250 µM; IC50 (BGM cells [2]; [10]): > 250 µM; IC50 (MCF-7 cells [3]; [11]): > 250 µM

**Q.** For `N.N.[Cl][Pt][Cl]` [cisplatin], which IC50 (HeLa cells [4]) is on record?
**A.** 67.6 ± 2 µM

**Q.** And the IC50 (BGM cells [5])?
**A.** 5.45 ± 0.2 µM

**Q.** What about the IC50 (MCF-7 cells [6]) of the same compound?
**A.** 7.15 ± 0.1 µM
